# In US10758534B2 (Vertex Pharmaceuticals Incorporated, priority 2014, dated 2020):
# Target: T1, F508del (Homo sapiens, UniProt P13569, DEL508-508)
# T1 construct: expressed in transfected cells
# Test: Protocol 2: FRET membrane potential optical assay (VIPR), identification of correction compounds
# Type: cell-based
# Settings: F508del CFTR modulator activity; compounds of Table 1; read-out: EC30
# Method in brief: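 Mouse NIH3T3 cells, stable F508del; cpd 16 hrs, 37° C., serum-free; pos ctrl 27° C. 16 hrs. Rinse in Krebs Ringers, dye load, then add 10 μM forskolin + 20 μM genistein with Cl^−-free (gluconate) medium; depolarization by FRET voltage dyes.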
# T1 sequence (P13569 with tags, fused parts or gaps DEL508-508): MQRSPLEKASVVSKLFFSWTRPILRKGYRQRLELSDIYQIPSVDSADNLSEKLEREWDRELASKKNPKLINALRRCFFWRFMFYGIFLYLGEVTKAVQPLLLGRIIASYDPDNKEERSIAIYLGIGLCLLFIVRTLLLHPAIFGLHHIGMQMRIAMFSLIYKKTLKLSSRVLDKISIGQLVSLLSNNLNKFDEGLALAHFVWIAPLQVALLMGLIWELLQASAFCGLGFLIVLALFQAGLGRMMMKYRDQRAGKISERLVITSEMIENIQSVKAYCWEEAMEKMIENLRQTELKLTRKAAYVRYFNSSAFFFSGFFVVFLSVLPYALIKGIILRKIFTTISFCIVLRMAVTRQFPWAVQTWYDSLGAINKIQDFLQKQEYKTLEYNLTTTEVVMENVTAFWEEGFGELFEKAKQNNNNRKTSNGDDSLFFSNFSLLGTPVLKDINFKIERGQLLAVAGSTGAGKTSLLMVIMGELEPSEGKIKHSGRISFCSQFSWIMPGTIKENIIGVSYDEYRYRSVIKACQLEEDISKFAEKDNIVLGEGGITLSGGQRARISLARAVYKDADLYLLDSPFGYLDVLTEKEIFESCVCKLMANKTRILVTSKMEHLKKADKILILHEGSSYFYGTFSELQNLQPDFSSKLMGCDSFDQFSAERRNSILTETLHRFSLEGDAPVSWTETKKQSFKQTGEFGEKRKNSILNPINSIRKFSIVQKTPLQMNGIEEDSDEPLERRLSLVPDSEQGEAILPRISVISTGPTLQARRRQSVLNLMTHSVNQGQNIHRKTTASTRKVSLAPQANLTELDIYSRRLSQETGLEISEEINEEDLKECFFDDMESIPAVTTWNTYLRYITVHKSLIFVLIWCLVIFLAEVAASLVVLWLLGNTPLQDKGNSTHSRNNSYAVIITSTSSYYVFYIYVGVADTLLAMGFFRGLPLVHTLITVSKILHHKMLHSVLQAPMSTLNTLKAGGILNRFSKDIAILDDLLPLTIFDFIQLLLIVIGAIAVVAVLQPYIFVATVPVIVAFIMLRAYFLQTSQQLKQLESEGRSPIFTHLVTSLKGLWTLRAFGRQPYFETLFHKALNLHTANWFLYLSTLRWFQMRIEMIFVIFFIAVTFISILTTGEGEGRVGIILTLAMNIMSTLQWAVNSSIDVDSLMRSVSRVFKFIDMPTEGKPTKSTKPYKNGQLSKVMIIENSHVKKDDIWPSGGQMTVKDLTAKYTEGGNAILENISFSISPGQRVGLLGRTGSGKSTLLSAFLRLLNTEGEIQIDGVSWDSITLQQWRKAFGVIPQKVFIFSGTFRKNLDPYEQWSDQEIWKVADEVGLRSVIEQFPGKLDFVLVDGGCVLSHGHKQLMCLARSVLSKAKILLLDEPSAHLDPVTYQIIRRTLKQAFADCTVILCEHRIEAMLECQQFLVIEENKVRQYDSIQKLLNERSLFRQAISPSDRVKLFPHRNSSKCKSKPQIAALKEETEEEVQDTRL
row,SMILES,EC30 [µM]
1,"Cc1cccc(-c2ccc(C(=O)NS(=O)(=O)c3ccc[nH]c3=O)c(N3C[C@@H](C)CC3(C)C)n2)c1C [Compound 2073, 6-(2,3-dimethylphenyl)-N-[(2-oxo-1H-pyridin-3-yl)sulfonyl]-2-[(4S)-2,2,4-trimethylpyrrolidin-1-yl]pyridine-3-carboxamide]",< 3
2,CC1CN(c2ncccc2C(=O)NS(=O)(=O)c2cccc(Oc3ccccc3N3CCCCC3)n2)C(C)(C)C1 (stereo not drawn) [Compound 2738],< 3
3,"CCOc1cc(C)c(-c2ccc(C(=O)NS(=O)(=O)c3cccc(N)n3)c(N3C[C@@H](C)CC3(C)C)n2)cc1C [Compound 2227, N-[(6-amino-2-pyridyl)sulfonyl]-6-(4-ethoxy-2,5-dimethyl-phenyl)-2-[(4S)-2,2,4-trimethylpyrrolidin-1-yl]pyridine-3-carboxamide]",< 3
4,"CC1CN(c2ncccc2C(=O)NS(=O)(=O)c2cccc(Nc3c(F)cccc3F)n2)C(C)(C)C1 (stereo not drawn) [Compound 2513, N—[[6-(2,6-difluoroanilino)-2-pyridyl]sulfonyl]-2-(2,2,4-trimethylpyrrolidin-1-yl)pyridine-3-carboxamide]",3 to 10
5,"CCOc1cc(-c2ccc(C(=O)NS(=O)(=O)c3cccnc3N)c(N3C[C@@H](C)CC3(C)C)n2)ccc1F [Compound 2665, N-[(2-amino-3-pyridyl)sulfonyl]-6-(3-ethoxy-4-fluoro-phenyl)-2-[(4S)-2,2,4-trimethylpyrrolidin-1-yl]pyridine-3-carboxamide]",< 3
6,"Cc1cc(O)cc(-c2ccc(C(=O)NS(=O)(=O)c3cccc(N)n3)c(N3C[C@@H](C)CC3(C)C)n2)c1 [Compound 2232, N-[(6-amino-2-pyridyl)sulfonyl]-6-(3-hydroxy-5-methyl-phenyl)-2-[(4S)-2,2,4-trimethylpyrrolidin-1-yl]pyridine-3-carboxamide]",3 to 10
7,"CC1CN(c2ncccc2C(=O)NS(=O)(=O)c2cccc(NCCCCc3ccccc3)n2)C(C)(C)C1 (stereo not drawn) [Compound 2119, N—[[6-(4-phenylbutylamino)-2-pyridyl]sulfonyl]-2-(2,2,4-trimethylpyrrolidin-1-yl)pyridine-3-carboxamide]",< 3

# Same assay, conditions: Table 3; compounds of Table 1 as modulators of CFTR activity; protocol not stated
row,SMILES,EC30
1,"CC1CN(c2nc(-c3ccnc(OC(C)C)c3)ccc2C(=O)NS(=O)(=O)c2cccc(N)n2)C(C)(C)C1 (stereo not drawn) [Compound 402, N-[(6-amino-2-pyridyl)sulfonyl]-6-(2-isopropoxy-4-pyridyl)-2-(2,2,4-trimethylpyrrolidin-1-yl)pyridine-3-carboxamide]",+++ (“+++” means <3 uM)
2,"COc1ncccc1S(=O)(=O)NC(=O)C1c2cccc(-c3ccccc3)c2CN1Cc1c(C)cc(C)cc1C (stereo not drawn) [Compound 427, N-[(2-methoxy-3-pyridyl)sulfonyl]-4-phenyl-2-[(2,4,6-trimethylphenyl)methyl]isoindoline-1-carboxamide]",+++ (“+++” means <3 uM)
3,"CC(C)COc1cc(F)cc(-c2ccc(C(=O)NS(=O)(=O)c3cccc(N)n3)c(N3CCCCC3C)n2)c1 (stereo not drawn) [Compound 425, N-[(6-amino-2-pyridyl)sulfonyl]-6-(3-fluoro-5-isobutoxy-phenyl)-2-(2-methyl-1-piperidyl)pyridine-3-carboxamide]",+++ (“+++” means <3 uM)
4,"CC(C)COc1cc(F)cc(-c2ccc(C(=O)NS(=O)(=O)c3cccc(N)n3)c(OC3CCC(C)C3C)n2)c1 (stereo not drawn) [Compound 503, N-[(6-amino-2-pyridyl)sulfonyl]-2-(2,3-dimethylcyclopentoxy)-6-(3-fluoro-5-isobutoxy-phenyl)pyridine-3-carboxamide]",+++ (“+++” means <3 uM)
5,"CC(C)COc1ccc(-c2ccc(C(=O)NS(=O)(=O)c3cccc(N)n3)c(N3[C@H](C)CC[C@@H]3C)n2)cc1 [Compound 563, N-[(6-amino-2-pyridyl)sulfonyl]-2-[(2S,5R)-2,5-dimethylpyrrolidin-1-yl]-6-(4-isobutoxyphenyl)pyridine-3-carboxamide]",+++ (“+++” means <3 uM)
